The subject of one assay is HUVECs. Kind of assay: Endothelial cell capillary-like tube formation assay. The assay is classed as cell-based.
The test system of assay [1] is STZ-induced diabetic mice. Kind of assay: Vascular abnormalities in the retina of diabetic mice. It is filed as in vivo. The procedure, abridged: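 Diabetes induced by single i.p. STZ 150 mg/kg; mice with non-fasting glucose >500 mg/dl after 1 week used. Peptide 10 mg/kg or DMSO vehicle i.p. twice daily for 24 h, then BSA-FITC 100 mg/kg i.p. for 30 min; retinal lesions counted on flat mounts (average lesions/retina), FITC-BSA leakage by fluorometry (ex 488/em 535 nm) normalized to non-injected control retina.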

Assay [2] deals with rat model of laser-induced wet AMD. Kind of assay: Laser-induced wet AMD, rat model. The assay is classed as in vivo. The following applies: fluorescein angiography day 14; vs PBS vehicle. The text has this: Further, the effect of 7-mer or 7-mer DD on rat model of laser-induced wet AMD was also investigated. Fluorescein angiography images were obtained on day 14 after laser burn, and the images were subsequently scored. Results are depicted in FIG. 14.

Assay [3] deals with laser-induced wet AMD mouse model. Nature of the assay: Laser induced choroidal neovascularization (CNV), mouse. It is filed as in vivo, C57BL/6 mice. To be noted: 10 mg/kg intraperitoneal twice a day for 10 days; vs vehicle. The method, then:
The 8-week-old female C57BL/6 mice were anaesthetized by injecting intraperitoneally a mixture of zoletil (6 mg/kg) and xylazine (3 mg/kg). The retina was viewed through a slit lamp microscope, and the optic nerve head was placed in the center of the microscope field. Both eyes received 3 or 4 laser burns around the optic nerve head using the diode laser (lesion diameter 50 μm; duration 100 ms; energy 250 mW). The formation of a blister indicates rupture of the Bruch's membrane after laser application. DMSO Vehicle or 7-mer (10 mg/kg; n≥10 per peptide) were administered by intraperitoneal injections twice a day for 10 days. Fluorescein fundus images were taken about 5 minutes after intraperitoneal injection of 0.1 mL of 100 mg/ml Fluorescein (10% w/v). During this period, the size of fluorescein leakage spots was relatively stable. The leakage of each CNV lesion was graded by a retina specialist according to the method described by Sheets et al. (Molecular Vision 2010; 16:320-329). […]
Wet type age-related macular degeneration (AMD) is characterized by extensive growth of new vessels in retina. […] Newly formed microvessels with clear fluorescein leakage in retina were assessed by fundus fluorescein angiography 10 days post laser treatment, and results are provided in the photographs of FIG. 13.

In a further assay the test system is diabetic rats. Nature of the assay: Vascular abnormalities in the retina of diabetic rats. To be noted: intravitreal injection. It is filed as in vivo, Sprague-Dawley rats. On the procedure: Diabetes was induced in male Sprague-Dawley rats after fasting overnight by a single intraperitoneal injection of STZ (65 mg/kg body weight). STZ was freshly prepared in 0.1 M citrate buffer (pH 4.5). Rats with blood glucose levels >350 mg/dl for 5 days after receiving STZ were considered to be in diabetic status and were termed diabetic rats hereinafter. Blood glucose levels were checked every 2 days a blood glucose monitor. Animals that served as non-diabetic controls received an equivalent amount of citrate buffer alone. For peptide treatment, diabetic rats were anesthetized by an intraperitoneal injection of a Xylazine (10 mg/kg), and then intravitreally injected with 3 μl of the present synthetic peptide (10 mM) into one eye and an equal volume of PBS was injected into the contralateral eye (n=3-6 per group). After peptide treatment for 24 h, measurement of retinal vascular leakage by BSA-FITC (100 mg/kg body weight) was conducted in according to procedures described above.

The test system of assay [4] is VEGF-induced corneal neovascularization. Kind of assay: Mouse corneal angiogenesis assay. The assay is classed as in vivo, C57BL/6 mice. To be noted: VEGF 200 ng; peptide 2.5 μg in micropellet. On the procedure:
Briefly, corneal micropockets were created on 6-week-old C57BL/6 mice by use of a needle. A micropellet of sucrose aluminum sulfate and hydron polymer containing 200 ng VEGF with or without 2.5 μg peptide was plated into each corneal pocket. Eyes were then photographed by a slit-lamp biomicroscope on day 7 after micropellet implantation. Ingrowth of the blood vessels into avascular cornea toward pellet was scored as positive response. The results were reported as positive corneas of total implant.

Ends that are not written are not given here.

For the substance “NH2-Asp-Leu-Tyr-Arg-Val-Arg-Ser-COOH (DLYRVRS; not fully specified (N-terminus, C-terminus); printed as NH2-Asp-Leu-Tyr-Arg-Val-Arg-Ser-COOH) [7-mer]”, the “effect on VEGF-induced tube formation” value in the assay on HUVECs (HUVECs, VEGF, 6 hrs) is given as “inhibited”. Moreover, the “Tube length (Fold)” value with HUVECs (VEGF (10 ng/mL) + 25 μM peptide, vs untreated HUVECs) was found to be 1.24 ± 0.23 Fold. In addition, the “extravasation of FITC-BSA” value in assay [1] is listed as “may significantly prevent”. Further, in assay [1] (10 mg/kg intraperitoneal twice a day, 24 h), the “number of vascular lesions in retina” value worked out at 1.8±0.54. Moreover, in assay [1] (intraperitoneal), the “hemorrhage in the retinal parenchyma” value is “successfully blocked”. Moreover, the “Fluorescence Intensity (Fold)” value in assay [1] (leaked FITC-BSA in entire retina, vs vehicle) stood at 0.29 ± 0.076 Fold. The “lesions caused by the laser burn” value in assay [2] was “significantly ameliorated”. Also, the “CNV lesion grades, severity distribution” value in assay [3] is “lower severity distribution of CNV”. Further, the “levels of leaked FITC-BSA in entire retina vs vehicle” value in the assay with diabetic rats is 0.43±0.07 fold. For the same substance, the “number of vascular lesion in retina” value with diabetic rats (24 h) stood at 9.2±2.15. Besides, the “VEGF-induced neovascularization in the cornea” value in assay [4] is reported as “completely abolished”.

These data come from US10463709B2, “Short synthetic peptide for treating diseases and/or conditions related to angiogenesis” (MacKay Memorial Hospital, priority 2015, dated 2019).
